Test results reported in US7078045B2, “Pharmaceutical composition for treatment and prevention of liver fibrosis and cirrhosis” (Sang-Geon Kim, priority 2000, dated 2006).
Read-outs that look alike come from different tables or passages of the source. Marks after values point to notes of the source that are not given here.

Assays:
[1] = test system: TNF-α production in RAW264.7 cells; assay: TNF-α production by LPS in RAW264.7 cells; assay type: cell-based; conditions: Table 6, TNF-α production; LPS + DDB 1.0 mg/kg as printed
Protocol: (§1) TNF-α is the principal mediator of the responses to LPS and is involved in inflammatory processes. It was determined by ELISA whether the amount of TNF-α released into blood decreases when NF-κB activity was inhibited by DDB. A single dose of LPS treatment (1 μg/kg, i.v.) increased the TNF-α level from 35 to 5160 pg per ml of plasma 2 h after administration. DDB treatment at a dose of 20, 50 or 100 mg/kg prevented the elevation of plasma TNF-α level by LPS, resulting in 1350, 1230 or 690 pg per ml of plasma, respectively. With the RAW264.7 cells, DDB decreased the production of TNF-α by LPS.

[2] = test system: TGF-β mRNA expression; assay: Effect of oltipraz/DDB combinations on TGF-β mRNA expression (quantitative RT-PCR) in DMN-administered animals; assay type: in vivo
Text: As addressed above, TGF-β is a cytokine that causes hepatic fibrosis and is known to be associated with hepatic fibrosis development.
However, as the DDB to oltipraz ratio increases, the inhibition of TGF-β expression is progressively lost. In the animal group administered with DDB alone, TGF-β expression was not inhibited. Therefore, inhibition of TGF-β expression is considered to be caused by oltipraz. On this ground, the best combination ratio of oltipraz to DDB is 5:1 (Table 9).

[3] = test system: I-κBα degradation; assay: I-κBα degradation after LPS in rats; assay type: in vivo, rat; conditions: LPS 1 μg/kg + DDB 100 mg/kg, 2 h prior to LPS
Protocol: (§2) Translocation of NF-κB to the nucleus was preceded by phosphorylation and proteolytic degradation of the I-κBα subunit. This test was conducted in order to ascertain whether the effect of DDB on NF-κB activation is associated with the inhibition of I-κBα degradation. The level of I-κBα protein was reduced 30 min after the treatment of rats with LPS (1 μg/kg). In contrast, treatment with DDB 2 h prior to LPS treatment attenuated the decrease in I-κBα protein by LPS. Also with RAW264.7 cells, DDB inhibited the degradation of I-κBα protein in a concentration-dependent manner at the concentrations of 0.3 to 1 mM.

[4] = test system: NF-κB activation in Raw264.7 cells; assay: LPS-induced NF-κB DNA binding activity in Raw264.7 cells; assay type: cell-based
Protocol: Stimulation of Raw264.7 cells with […] of LPS caused an increase in DNA binding activity of NF-κB after 30 min to 1 h. DDB at the concentrations of 0.1, 0.3 and 1 mM inhibited NF-κB activity in a concentration-dependent manner.

[5] = test system: TNF-α production; assay: Plasma TNF-α after LPS in rats (ELISA); assay type: in vivo, rat; conditions: for plasma TNF-α level: LPS 1 μg/kg i.v., 2 h after administration; for % inhibition of LPS-induced plasma TNF-α elevation: Table 6, TNF-α production in plasma
Protocol: as §1

[6] = test system: NF-κB activation; assay: LPS-inducible NF-κB activation in rat liver (EMSA); assay type: in vivo; conditions: 2 h prior to LPS
Protocol: It is known that NF-κB activation is associated with inflammatory responses. To compare the NF-κB activity in the liver tissue when DDB is administered with that when DDB is not administered, the following test was conducted. SD male rats with weight of about 150 g were used. For one group 7 rats were used. For the control group (vehicle administered) and test group (20 to 100 mg/kg/day of DDB administered), the NF-κB activity in accordance with the treatment of endotoxin (lipopolysaccharide, LPS) was measured by using Electrophoresis Mobility Shift Assay (EMSA).

[7] = test system: I-κBα degradation in RAW264.7 cells; assay: I-κBα degradation after LPS in RAW264.7 cells; assay type: cell-based
Protocol: as §2

[8] = test system: TGF-β expression in RAW264.7 macrophage cells; assay: Inhibition of TGF-β expression in RAW264.7 macrophage cells; assay type: cell-based
[9] = test system: DMN induced hepatic fibrosis; assay: animal or person
Text: Plasma gamma-glutamyl transpeptidase (gamma-GT) activity and bilirubin content are used as indicators of hepatic functionality.
Each value is represented by the average ± standard deviation. The number of animals used ranged from 8 to 16. The significance of each group was indicated by the Newman-Keuls test of multiple analysis. The significance markers are: *=p<0.05 compared to control, #=p<0.05 compared to DMN treated group.
The anti-fibrotic activity of the oltipraz/DDB combination was evaluated by changing the component ratio of the combination. To evaluate the effect of the combination according to the component ratio, the dosage schedule of DMN was partially modified. That is, while DMN was administered to a rat 12 times totally in dosages of 10 μl/kg per administration over a 4-week period, 3 times a week in the test examples 1 and 2, to evaluate the effect of the combination according to the component ratio, an animal model with reduced liver damage was used wherein DMN was administered to a rat 9 times totally in dosages of 10 μl/kg per administration over a 3-week period, 3 times a week, and then not administered in the remaining one week in the test example.

[10] = test system: DMN induced hepatic fibrosis; conditions: 3 times a week; for Fibrosis Values: score 0-4
Protocol: The degree of fibrosis was determined by evaluating the fibrosis and Knodell scores, which show degrees of liver damage and fibrosis.
Each value is represented by the average ± standard deviation. The number of animals used was 8 to 16. The significance of each group is determined by the Newman-Keuls test of multiple analysis. *p<0.05, **p<0.01. Degree of fibrosis 0=Normal, 1=Presence of weak fibrous tissue, 2=Moderate presence of fibrous tissue, 3=Obvious presence of fibrous tissue, 4=Evidence of severe fibrosis. Sum of values from periportal bridging (Greatest=10), intralobular cell loss (Greatest=4), portal inflammation (Greatest=4), and fibrosis (Greatest=4) yields the Knodell score.

[11] = test system: TGF-β 1 mRNA expression; conditions: liver tissue; 100 mg/kg oltipraz given 18 hours after DMN, observed 24 hours later
[12] = plasma, DMN 4 weeks + Oltipraz 50 mg/kg
[13] = DMN 4 weeks + Oltipraz 5 mg/kg oral
[14] = DMN 4 weeks + Oltipraz 15 mg/kg oral
[15] = DMN 4 weeks + Oltipraz 50 mg/kg oral

SMILES: COC(=O)c1cc(OC)c2c(c1-c1c(C(=O)OC)cc(OC)c3c1OCO3)OCO2 [DDB, dimethyl-4,4′-dimethoxy-5,6,5′,6′-dimethylene dioxybiphenyl-2,2′-dicarboxylate]
- % inhibition of TNF-α production [1]: 65%
- % Inhibition of TGF-β mRNA expression ([2]; DMN + DDB 30 mg/kg): 0%
- TGF-β expression (result in words) ([2]; DMN + DDB alone): not inhibited
- % inhibition of I-κBα degradation [3]: 67%
- % inhibition of NF-κB activation ([4]; LPS 1 μg/ml + DDB 0.1 mM): 33%
- % inhibition of NF-κB activation ([4]; LPS 1 μg/ml + DDB 0.3 mM): 35%
- % inhibition of NF-κB activation ([4]; LPS 1 μg/ml + DDB 1.0 mM): 65%
- plasma TNF-α level ([5]; DDB 20 mg/kg): 1350 pg per ml of plasma
- plasma TNF-α level ([5]; DDB 50 mg/kg): 1230 pg per ml of plasma
- plasma TNF-α level ([5]; DDB 100 mg/kg): 690 pg per ml of plasma
- % inhibition of LPS-induced plasma TNF-α elevation ([5]; LPS 1 μg/kg + DDB 20 mg/kg): 74%
- % inhibition of LPS-induced plasma TNF-α elevation ([5]; LPS 1 μg/kg + DDB 50 mg/kg): 76%
- % inhibition of LPS-induced plasma TNF-α elevation ([5]; LPS 1 μg/kg + DDB 100 mg/kg): 87%
- % inhibition of NF-κB activation ([6]; LPS 1 μg/kg + DDB 20 mg/kg): 42%
- % inhibition of NF-κB activation ([6]; LPS 1 μg/kg + DDB 50 mg/kg): 63%
- % inhibition of NF-κB activation ([6]; LPS 1 μg/kg + DDB 100 mg/kg): 73%
- % inhibition of I-κBα degradation ([7]; LPS 1 μg/ml + DDB 0.1 mM): 22%
- % inhibition of I-κBα degradation ([7]; LPS 1 μg/ml + DDB 0.3 mM): 34%
- % inhibition of I-κBα degradation ([7]; LPS 1 μg/ml + DDB 1.0 mM): 65%

SMILES: O=C(O)CN(CCOCCOCCN(CC(=O)O)CC(=O)O)CC(=O)O [EGTA]
- TGF-β Inhibition Percentage (%) ([8]; EGTA 1 mM): 80%

SMILES: O=c1c(-c2ccc(O)cc2)coc2cc(O)cc(O)c12 [Genistein, genistein]
- inhibition at 100 µM ([8]; Mus musculus, Genistein 100 μM, read-out: TGF-β Inhibition Percentage (%)): 80%

SMILES: Cc1c(-c2cnccn2)ssc1=S [Oltipraz, 5-(2-pyrazinyl)-4-methyl-1,2-dithiol-3-thione]
- TGF-β expression (result in words) ([2]; DMN + 30 mg/kg of oltipraz): completely inhibited
- % Inhibition of TGF-β mRNA expression ([2]; DMN + oltipraz 30 mg/kg): 65%
- inhibition percentage of ALT increase by DMN ([9]; 50 mg/kg of oltipraz administered alone (stated in Test Example 7)): 40%
- inhibition at 50 mg/kg ([9]; Rattus norvegicus, read-out: inhibition of plasma bilirubin increase): 65%
- ALT [9, 12]: 116 ± 4^#
- AST [9, 12]: 246 ± 32^#
- Bilirubin [9, 12]: 0.3 ± 0.03^#
- gamma-GT [9, 12]: 2.6 ± 0.5^#
- Knodell Values [10, 13]: 11.1 ± 1.7*
- Fibrosis Values [10, 13]: 3.1 ± 0.4*
- Knodell Values [10, 14]: 12.1 ± 1.9*
- Fibrosis Values [10, 14]: 2.9 ± 0.8*
- Knodell Values [10, 15]: 8.0 ± 1.6**
- Fibrosis Values [10, 15]: 2.5 ± 0.9**
- DMN induced expression of TGF-β 1 mRNA [11]: completely inhibited
- inhibition at 30 µM ([8]; Mus musculus, Oltipraz 30 μM, read-out: TGF-β Inhibition Percentage (%)): 30%
- inhibition at 100 µM ([8]; Mus musculus, Oltipraz 100 μM, read-out: TGF-β Inhibition Percentage (%)): 60%
